Laboratory results published in US8129404B2, “Compounds and uses thereof” (Plexxikon Inc., priority 2009, dated 2012).
Like-named read-outs stand apart in the source and are kept apart here.

Columns and labels:
[1] = target: Kdr (Homo sapiens, UniProt P35968); assay: Kinase biochemical assay, Kdr
[2] = target: T1, CYP3A4(BQ) (Homo sapiens, UniProt P08684); assay: CYP inhibition fluorescence assay, CYP3A4 with BQ substrate; format: in vitro ADME; settings: read-out: Cyp IC50 3A4(BQ)
T1 construct: purchased BD Biosciences
Procedure: (§1) CYP (Cytochrome P450) enzymes are the major drug metabolizing enzymes present in the liver. The inhibition of CYP enzyme activity (IC50) for each of CYP1A2, CYP2C19, CYP2C9, CYP2D6, CYP3A4(BFC) and CYP3A4(BQ) is determined for compounds, where inhibition of metabolism of a known substrate leads to a decrease in the fluorescence of the metabolized product. The fluorescence of the product is monitored as a function of compound concentration. Compounds are dissolved in dimethyl sulfoxide to a concentration of 100 mM. These are diluted 1 μL into 82 μL of acetonitrile. An 11 μL aliquot of this solution is then added to 204 μL of cofactor mix (1.3% NADPH Regeneration system Solution A, 1.04% NADPH Regeneration system Solution B from BD Biosciences, 5% acetonitrile and 0.05% dimethyl sulfoxide). These are then serially diluted 160 μL to 160 μL co-factor mix for a total of 10 points. A 10 μL aliquot of this final mixture is dispensed into 384 well assay plates and incubated for 10 minutes at 37° C. Enzyme and substrate mix (10 μL; 0.5 pmol CYP1A2/5 μM CEC; 1.0 pmol CYP2C9/75 μM MFC; 0.5 pmol CYP2C19/25 μM CEC; 1.5 pmol CYP2D6/1.5 μM AMMC; 1.0 pmol CYP3A4/50 μM BFC; or 1.0 pmol CYP3A4/40 μM BQ) is added to these assay plates. […] (CYP1A2-15 min; CYP2C9-45 min; CYP2C19, 2D6 and 3A4-30 min) and read in a Tecan Safire 2 plate reader (CYP1A2, 2C19 and 3A4 409 ex/460 em; CYP2C9 and 2D6 409 ex/530 em). […]

[3] = pKa of weakly basic and weakly acidic centers; format: physicochemical; settings: approximate
[4] = target: T2, c-Raf-1 (Homo sapiens, UniProt P04049); assay: Raf kinase biochemical assay (biotin-MEK1 phosphorylation, AlphaScreen), c-Raf-1; settings: 100 μM ATP, biotin-MEK1 substrate
T2 construct: purchased Upstate Biotechnology
Procedure: (§2) Assays for biochemical and cell based activity are known in the art, for example, as described in PCT publication WO 2007/002433, the disclosure of which is hereby incorporated by reference as it relates to such assays. For example, the biochemical activity IC50 values are determined with respect to inhibition of B-Raf kinase activity, c-Raf-1 kinase activity, or B-Raf V600E kinase activity, where inhibition of phosphorylation of a peptide substrate is measured as a function of compound concentration. Compounds to be tested are diluted in dimethyl sulfoxide to a concentration of 0.1 mM. These are serially diluted 15 μL into 30 μL of dimethyl sulfoxide seven times in 96 well plates for a total of 8 dilution points, and for each dilution point 1 μL is added to a well of an assay plate. Plates are prepared such that each well in a 384 well plate contains 1 μL of compound in 10 μL volume with 0.1 ng Raf enzyme (i.e. any of B-Raf, c-Raf-1 or B-Raf V600E, Upstate Biotechnology or prepared by methods known to one of skill in the art), 50 mM HEPES, pH 7.0, 50 mM NaCl, 2 mM MgCl2, 1 mM MnCl2, 0.01% Tween-20, 1 mM DTT, and 100 nM biotin-MEK1 as substrate. The reaction is started with addition of 10 μL of 200 μM ATP (i.e. final 100 μM ATP). […] The plates are incubated for 3 hours at room temperature and read on Envision reader (Perkin Elmer). […]

[5] = target: T3, CYP2D6 (Homo sapiens, UniProt P10635); assay: CYP inhibition fluorescence assay, CYP2D6; format: in vitro ADME; settings: substrate AMMC; read-out: Cyp IC50 2D6
T3 construct: purchased BD Biosciences
Procedure: as §1

[6] = target: TrkA (Homo sapiens, UniProt P04629); assay: Kinase biochemical assay, TrkA
[7] = target: Hgk (Homo sapiens, UniProt O95819); assay: Kinase biochemical assay, Hgk
[8] = target: T4, B-Raf mutant V600E (Homo sapiens, UniProt P15056, V600E); assay: Raf kinase biochemical assay (biotin-MEK1 phosphorylation, AlphaScreen), B-Raf V600E; settings: 100 μM ATP, biotin-MEK1 substrate
T4 construct: purchased Upstate Biotechnology
Procedure: as §2

[9] = target: Src (Homo sapiens, UniProt P12931); assay: Kinase biochemical assay, Src
[10] = target: T5, CYP1A2 (Homo sapiens, UniProt P05177); assay: CYP inhibition fluorescence assay, CYP1A2; format: in vitro ADME; settings: substrate CEC; read-out: Cyp IC50 1A2
T5 construct: purchased BD Biosciences
T5 sequence (P05177 1-516): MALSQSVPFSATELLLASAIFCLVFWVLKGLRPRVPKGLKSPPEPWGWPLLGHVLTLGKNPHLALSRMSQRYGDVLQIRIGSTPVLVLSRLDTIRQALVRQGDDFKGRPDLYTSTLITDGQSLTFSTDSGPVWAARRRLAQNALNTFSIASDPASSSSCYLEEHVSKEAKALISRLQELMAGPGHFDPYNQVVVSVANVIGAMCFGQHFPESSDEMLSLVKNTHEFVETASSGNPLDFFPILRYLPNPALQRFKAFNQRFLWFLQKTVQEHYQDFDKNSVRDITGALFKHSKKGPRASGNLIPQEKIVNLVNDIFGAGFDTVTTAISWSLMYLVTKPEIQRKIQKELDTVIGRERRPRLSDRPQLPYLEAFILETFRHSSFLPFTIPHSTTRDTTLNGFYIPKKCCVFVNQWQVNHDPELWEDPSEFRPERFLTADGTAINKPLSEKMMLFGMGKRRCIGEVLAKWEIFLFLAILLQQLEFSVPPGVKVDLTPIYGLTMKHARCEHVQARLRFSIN
Procedure: as §1

[11] = target: Fms (Homo sapiens, UniProt P07333); assay: Kinase biochemical assay, Fms
[12] = target: Kit (Homo sapiens, UniProt P10721); assay: Kinase biochemical assay, Kit
[13] = target: Btk (Homo sapiens, UniProt Q06187); assay: Kinase biochemical assay, Btk
[14] = target: T6, CYP3A4(BFC) (Homo sapiens, UniProt P08684); assay: CYP inhibition fluorescence assay, CYP3A4 with BFC substrate; format: in vitro ADME; settings: read-out: Cyp IC50 3A4(BFC)
T6 construct: purchased BD Biosciences
Procedure: as §1

[15] = Turbidity assay of relative solubility in aqueous buffers of varying pH; format: physicochemical
Procedure: As an indication of relative solubility, the turbidity of compounds in aqueous solutions is assessed. To assess possible compound properties in different physiological compartments, such as stomach, intestine, and blood, a series of aqueous buffers with varying pH is used. Thus each compound is diluted into four different physiologically relevant buffers and solution turbidity is measured by spectrophotometry.
Compounds are dissolved at a concentration of 25 mM in dimethyl sulfoxide, then serially diluted 1:1 into a 96 well plate, diluting 10 times in pure dimethyl sulfoxide, with the final well of each row a dimethyl sulfoxide blank. In an assay plate, 99 μL of appropriate buffer is added to each well, and 1 μL of each sample dilution is added to the buffer, achieving a range of final total concentrations in aqueous solutions having different pH. […] Control compounds pyrene, estriol and propranolol HCl are also assessed. Plates are spun and then mixed for 1 minute, and the absorbance is read using a Tecan Safire II to read wavelengths in the visible range (490, 535, and 650 nm) at four locations per well, reflecting the degree of turbidity present. The average optical density for each wavelength in each well is graphed vs. compound concentration, and the concentration at which the curve crosses a threshold O.D. of 0.01 for each wavelength is reported as the endpoint turbidity assay result. The average of the three wavelengths is used to compare turbidity of compounds. Compounds are considered to have low solubility if the threshold concentration is <31.3 μM, moderate solubility if the threshold concentration is 31.3 μM to 250 μM, and high solubility if the threshold concentration is >250 μM.

[16] = target: T7, B-Raf (Homo sapiens, UniProt P15056); assay: Raf kinase biochemical assay (biotin-MEK1 phosphorylation, AlphaScreen), B-Raf; settings: 100 μM ATP, biotin-MEK1 substrate
T7 construct: purchased Upstate Biotechnology
Procedure: as §2

[17] = target: T8, CYP2C9 (Homo sapiens, UniProt P11712); assay: CYP inhibition fluorescence assay, CYP2C9; format: in vitro ADME; settings: substrate MFC; read-out: Cyp IC50 2C9
T8 construct: purchased BD Biosciences
Procedure: as §1

[18] = target: T9, CYP2C19 (Homo sapiens, UniProt P33261); assay: CYP inhibition fluorescence assay, CYP2C19; format: in vitro ADME; settings: substrate CEC; read-out: Cyp IC50 2C19
T9 construct: purchased BD Biosciences
Procedure: as §1

[19] = read-out: pKa of N-7 of the pyrrolo[2,3-b]pyridine portion (weakly basic)
[20] = read-out: pKa of the sulfonamide nitrogen (weakly acidic)
[21] = pH 1.4 (Simulated Gastric Fluid)
[22] = pH 4.5 (Simulated Intestinal fluid)
[23] = pH 6.8 (Simulated Intestinal fluid)

Sequence of TrkA (P04629 33-796, species assumed): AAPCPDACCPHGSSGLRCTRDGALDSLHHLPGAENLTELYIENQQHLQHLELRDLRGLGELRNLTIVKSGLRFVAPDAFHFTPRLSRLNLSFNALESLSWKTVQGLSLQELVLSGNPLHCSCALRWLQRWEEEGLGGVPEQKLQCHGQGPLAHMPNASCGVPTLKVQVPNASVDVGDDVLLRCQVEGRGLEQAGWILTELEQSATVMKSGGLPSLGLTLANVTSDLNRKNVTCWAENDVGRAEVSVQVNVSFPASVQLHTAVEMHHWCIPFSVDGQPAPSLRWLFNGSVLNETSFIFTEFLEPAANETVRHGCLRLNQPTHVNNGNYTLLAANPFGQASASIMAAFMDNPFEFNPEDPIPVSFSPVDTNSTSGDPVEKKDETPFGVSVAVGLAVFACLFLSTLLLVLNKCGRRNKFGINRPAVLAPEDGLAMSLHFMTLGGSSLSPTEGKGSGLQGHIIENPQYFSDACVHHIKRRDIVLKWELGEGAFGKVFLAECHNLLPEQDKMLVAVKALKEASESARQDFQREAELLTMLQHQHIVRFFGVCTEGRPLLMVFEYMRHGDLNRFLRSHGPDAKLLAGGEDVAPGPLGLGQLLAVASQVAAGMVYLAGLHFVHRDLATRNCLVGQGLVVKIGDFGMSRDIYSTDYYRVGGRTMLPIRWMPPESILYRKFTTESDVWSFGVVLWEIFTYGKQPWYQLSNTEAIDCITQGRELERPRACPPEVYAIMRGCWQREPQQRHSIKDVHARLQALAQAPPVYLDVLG
T4 sequence (P15056 whole entry V600E): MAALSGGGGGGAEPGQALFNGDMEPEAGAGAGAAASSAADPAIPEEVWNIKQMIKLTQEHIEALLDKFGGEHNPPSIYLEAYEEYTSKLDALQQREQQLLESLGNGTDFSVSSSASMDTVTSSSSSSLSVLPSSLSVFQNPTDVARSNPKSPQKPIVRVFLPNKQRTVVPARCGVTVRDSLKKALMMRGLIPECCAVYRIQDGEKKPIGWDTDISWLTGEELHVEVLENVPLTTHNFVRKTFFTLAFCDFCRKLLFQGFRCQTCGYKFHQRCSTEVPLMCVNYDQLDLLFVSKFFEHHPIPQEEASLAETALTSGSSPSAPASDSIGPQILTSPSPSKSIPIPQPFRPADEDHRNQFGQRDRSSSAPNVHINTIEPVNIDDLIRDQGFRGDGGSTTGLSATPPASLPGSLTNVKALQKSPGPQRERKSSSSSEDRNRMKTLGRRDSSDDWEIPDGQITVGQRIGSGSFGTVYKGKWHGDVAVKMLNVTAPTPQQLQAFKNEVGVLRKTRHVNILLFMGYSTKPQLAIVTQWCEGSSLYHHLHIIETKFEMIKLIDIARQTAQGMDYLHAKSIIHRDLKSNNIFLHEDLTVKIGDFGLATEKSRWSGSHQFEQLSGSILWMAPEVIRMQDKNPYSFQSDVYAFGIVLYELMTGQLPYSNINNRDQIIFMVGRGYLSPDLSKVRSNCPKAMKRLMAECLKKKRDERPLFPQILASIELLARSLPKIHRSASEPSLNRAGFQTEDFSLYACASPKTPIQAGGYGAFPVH
T7 sequence (P15056 whole entry): as the sequence (P15056 whole entry V600E) above, with E600V counted along it
Sequence of Btk (Q06187 whole entry, species assumed): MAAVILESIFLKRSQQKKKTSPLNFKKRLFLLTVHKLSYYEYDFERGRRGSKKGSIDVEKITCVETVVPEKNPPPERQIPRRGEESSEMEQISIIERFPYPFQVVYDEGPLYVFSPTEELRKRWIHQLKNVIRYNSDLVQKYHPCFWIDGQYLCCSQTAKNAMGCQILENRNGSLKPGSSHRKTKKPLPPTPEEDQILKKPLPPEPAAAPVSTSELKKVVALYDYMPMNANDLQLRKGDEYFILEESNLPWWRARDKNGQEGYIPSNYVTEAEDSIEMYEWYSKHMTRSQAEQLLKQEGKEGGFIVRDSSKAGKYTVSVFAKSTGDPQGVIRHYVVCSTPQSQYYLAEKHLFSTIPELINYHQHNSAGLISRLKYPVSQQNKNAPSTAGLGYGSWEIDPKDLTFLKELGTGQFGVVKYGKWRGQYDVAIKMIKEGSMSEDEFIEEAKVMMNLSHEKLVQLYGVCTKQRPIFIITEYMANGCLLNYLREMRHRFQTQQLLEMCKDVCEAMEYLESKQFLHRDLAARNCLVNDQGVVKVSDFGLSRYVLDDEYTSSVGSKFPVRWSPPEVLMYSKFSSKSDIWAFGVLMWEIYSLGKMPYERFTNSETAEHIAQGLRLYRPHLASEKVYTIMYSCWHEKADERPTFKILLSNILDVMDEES
T8 sequence (P11712 whole entry): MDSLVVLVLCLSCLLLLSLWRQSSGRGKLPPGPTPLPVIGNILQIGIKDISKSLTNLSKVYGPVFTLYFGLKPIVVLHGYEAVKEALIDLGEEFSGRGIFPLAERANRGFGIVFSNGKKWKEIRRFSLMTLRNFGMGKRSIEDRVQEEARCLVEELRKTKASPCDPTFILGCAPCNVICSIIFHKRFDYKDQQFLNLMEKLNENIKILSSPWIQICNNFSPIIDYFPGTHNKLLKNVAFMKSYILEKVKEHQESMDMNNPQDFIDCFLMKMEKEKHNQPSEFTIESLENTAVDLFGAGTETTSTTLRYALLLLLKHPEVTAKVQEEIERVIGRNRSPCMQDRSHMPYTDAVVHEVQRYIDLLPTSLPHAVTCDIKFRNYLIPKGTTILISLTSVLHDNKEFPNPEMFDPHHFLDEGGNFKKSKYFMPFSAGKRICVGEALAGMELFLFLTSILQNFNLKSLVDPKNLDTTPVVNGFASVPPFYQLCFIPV
Sequence of Fms (P07333 20-972, species assumed): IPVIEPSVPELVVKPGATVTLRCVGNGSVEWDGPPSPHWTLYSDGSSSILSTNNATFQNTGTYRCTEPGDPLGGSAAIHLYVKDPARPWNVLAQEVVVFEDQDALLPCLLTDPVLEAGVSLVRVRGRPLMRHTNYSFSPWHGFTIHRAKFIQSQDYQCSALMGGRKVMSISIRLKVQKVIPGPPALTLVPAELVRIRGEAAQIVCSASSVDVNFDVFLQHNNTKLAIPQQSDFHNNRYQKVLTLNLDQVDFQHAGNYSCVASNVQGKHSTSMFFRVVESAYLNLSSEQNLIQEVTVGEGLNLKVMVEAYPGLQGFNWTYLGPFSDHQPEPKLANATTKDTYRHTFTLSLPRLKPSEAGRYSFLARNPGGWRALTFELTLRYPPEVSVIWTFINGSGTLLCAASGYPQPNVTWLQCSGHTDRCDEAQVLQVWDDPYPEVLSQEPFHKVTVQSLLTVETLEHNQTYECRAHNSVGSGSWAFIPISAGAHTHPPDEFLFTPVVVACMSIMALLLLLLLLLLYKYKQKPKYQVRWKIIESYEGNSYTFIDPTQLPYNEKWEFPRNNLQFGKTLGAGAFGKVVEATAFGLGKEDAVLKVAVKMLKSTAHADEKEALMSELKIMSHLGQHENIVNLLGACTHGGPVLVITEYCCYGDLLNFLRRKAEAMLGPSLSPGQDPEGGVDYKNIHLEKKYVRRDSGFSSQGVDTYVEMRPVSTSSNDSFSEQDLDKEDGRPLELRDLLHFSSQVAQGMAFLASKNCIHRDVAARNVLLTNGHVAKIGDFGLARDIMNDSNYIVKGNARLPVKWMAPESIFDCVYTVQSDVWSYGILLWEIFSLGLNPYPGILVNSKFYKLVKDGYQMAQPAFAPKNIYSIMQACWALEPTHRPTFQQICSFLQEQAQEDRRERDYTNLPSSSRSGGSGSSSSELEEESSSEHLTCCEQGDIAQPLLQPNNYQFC
T9 sequence (P33261 whole entry): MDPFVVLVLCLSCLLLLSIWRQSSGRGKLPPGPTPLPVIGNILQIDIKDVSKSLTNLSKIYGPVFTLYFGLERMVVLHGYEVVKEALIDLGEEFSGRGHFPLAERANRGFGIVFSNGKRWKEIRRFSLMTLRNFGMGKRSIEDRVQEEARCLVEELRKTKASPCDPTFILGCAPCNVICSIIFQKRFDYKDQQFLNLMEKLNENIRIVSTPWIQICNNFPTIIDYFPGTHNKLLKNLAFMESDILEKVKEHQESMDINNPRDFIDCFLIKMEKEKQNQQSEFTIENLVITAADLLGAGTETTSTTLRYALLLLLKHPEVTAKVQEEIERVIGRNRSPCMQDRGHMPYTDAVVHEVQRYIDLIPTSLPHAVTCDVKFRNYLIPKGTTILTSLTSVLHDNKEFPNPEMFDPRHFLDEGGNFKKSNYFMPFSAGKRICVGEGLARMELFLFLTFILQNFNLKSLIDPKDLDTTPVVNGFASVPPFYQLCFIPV
T2 sequence (P04049 whole entry): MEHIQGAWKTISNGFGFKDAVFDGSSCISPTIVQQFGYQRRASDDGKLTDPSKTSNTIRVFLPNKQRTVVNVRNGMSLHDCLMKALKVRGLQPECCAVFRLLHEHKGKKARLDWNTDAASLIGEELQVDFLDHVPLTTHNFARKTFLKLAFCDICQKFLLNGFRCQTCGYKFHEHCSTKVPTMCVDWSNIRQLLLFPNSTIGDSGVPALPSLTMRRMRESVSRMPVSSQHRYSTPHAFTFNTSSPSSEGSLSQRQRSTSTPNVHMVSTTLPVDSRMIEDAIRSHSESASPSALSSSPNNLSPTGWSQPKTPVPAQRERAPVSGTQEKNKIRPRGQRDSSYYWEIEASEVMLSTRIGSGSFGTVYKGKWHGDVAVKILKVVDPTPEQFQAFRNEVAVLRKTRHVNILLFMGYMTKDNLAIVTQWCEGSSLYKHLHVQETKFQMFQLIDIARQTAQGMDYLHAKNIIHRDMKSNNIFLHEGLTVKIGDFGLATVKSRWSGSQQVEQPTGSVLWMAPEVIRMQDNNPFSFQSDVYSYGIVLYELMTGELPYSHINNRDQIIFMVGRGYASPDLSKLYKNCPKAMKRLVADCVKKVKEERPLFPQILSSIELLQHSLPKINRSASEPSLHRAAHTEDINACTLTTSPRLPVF

Row | SMILES | IC50 [1] | IC50 [2] | pKa [3, 19] | pKa [3, 20] | IC50 [4] | IC50 [5] | IC50 [6] | IC50 [8] | IC50 [9] | IC50 [10] | IC50 [11] | IC50 [13] | IC50 [14] | turbidity threshold (L, M, H) [15, 21] | turbidity threshold (L, M, H) [15, 22] | turbidity threshold (L, M, H) [15, 23] | turbidity threshold (L, M, H) ([15]; pH 7.4 (Hepes Buffer)) | IC50 [16] | IC50 [17] | IC50 [18] | also measured
1 | N#Cc1ccnc2[nH]cc(C(=O)c3c(F)ccc(NS(=O)(=O)c4ccc(C(F)(F)F)cc4)c3F)c12 [Compound P-0001, N-[3-(4-cyano-1H-pyrrolo[2,3-b]pyridine-3-carbonyl)-2,4-difluoro-phenyl]-4-trifluoromethyl-benzenesulfonamide] | > 10 µM | > 10 µM | 4 to 5 | ~7 | < 0.1 µM | > 10 µM | 1 to 10 µM | < 1 µM | 1 to 10 µM | > 10 µM | > 10 µM | > 10 µM | > 10 µM | L (low solubility if the threshold concentration is <31.3 μM) | L (low solubility if the threshold concentration is <31.3 μM) | L (low solubility if the threshold concentration is <31.3 μM) | M (moderate solubility if the threshold concentration is 31.3 μM to 250 μM) | < 0.1 µM | > 10 µM | > 10 µM | IC50 [7]: > 10 µM; IC50 [12]: 1 to 10 µM
2 | C#Cc1ccnc2[nH]cc(C(=O)c3c(F)ccc(NS(=O)(=O)c4ccc(C(F)(F)F)cc4)c3F)c12 [Compound P-0002, N-[3-(4-ethynyl-1H-pyrrolo[2,3-b]pyridine-3-carbonyl)-2,4-difluoro-phenyl]-4-trifluoromethyl-benzenesulfonamide] | ~1 µM | > 10 µM | 4 to 5 | ~7 | < 0.1 µM | > 10 µM | > 10 µM | < 1 µM | ~1 µM | > 10 µM | > 10 µM | > 10 µM | 5 to 10 µM | L (low solubility if the threshold concentration is <31.3 μM) | L (low solubility if the threshold concentration is <31.3 μM) | M (moderate solubility if the threshold concentration is 31.3 μM to 250 μM) | M (moderate solubility if the threshold concentration is 31.3 μM to 250 μM) | < 0.1 µM | < 5 µM | > 10 µM | 
